Data from article PMC6582486, “Stapled EGFR peptide reduces inflammatory breast cancer and inhibits additional HER-driven models of cancer” (Journal of Translational Medicine, 2019).
Marks after values point to notes of the source that are not given here. Where a SMILES comes first, the peptide text is derived from it. Bridges are numbered along the chain shown (N, C = ends). [ ]: non-standard residue; d: D form. R8 = C=CCCCCCC[C@@](C)(N)C(=O)O; S5 = C=CCCC[C@](C)(N)C(=O)O

Assays:
CHO cells = assay: Cell viability assay (MTT), CHO; format: cell-based, Chinese Hamster; settings: 5 µM (Fig. 1h)
Text: Fig. 1 Hydrocarbon stapling leads to increased EJ1 activity in comparison to HER-directed monoclonal therapies. a EJ1 sequence with PTD4 domain (underlined) corresponding to EGFR juxtamembrane domain sequence 643–663. Stabilized alpha helix (SAH) variations 1–5 beneath, with asterisks (*) indicating sites of staple. Control peptide (CP) with altered residues indicated by double underline. Stapled control (5) asterisks (*) indicate sites of staple. b Cartoon representation of EJ1 structure, with staple variation 5 highlighted. Positively charged residues indicated in blue, negatively charged residues in red. c Cartoon representation of CP structure, with staple variation highlighted. d Cell viability assay performed in MDA-MB-468 cells after 24 h comparing unstapled EJ1 versus staple variations SAH1, SAH4, and SAH5, with increasing concentrations. e Visualization of MDA-MB-468 cells untreated, treated with 10 µM EJ1, and 10 µM SAH5-EJ1 after 60 min. Scale bars represent 50 µm. f–h Cell viability assay performed in MDA-MB-468, MCF10A, or CHO cells over 3 days comparing treatment with Sapitinib (blue lines), SAH5-EJ1 (red lines), and SAH5-CP (grey lines). […] Absorbance was read at 540 nm by plate reader (uQuant, Bio-Tek Instruments). P-values were calculated from a one-way ANOVA.

[1] = 28-day toxicity study: clinical chemistry; format: in vivo, CD-1 mice; settings: day 29, mean ± SD
Description: Toxicology was performed by IITRI. The study was conducted in compliance with the US Food and Drug Administration (FDA) good laboratory practice (GLP) Regulations (Code of Federal Regulations Title 21 Part 58) to evaluate the toxicokinetics, local tolerability, immunogenicity, and potential toxicity of SAH5-EJ1 following three times per week intravenous (IV) dosing for 28 days in mice. Male and female CD-1 IGS [Crl:CD1(ICR)] mice (135 per sex) were received from Wilmington, MA-based Charles River Laboratories, Inc.’s Kingston facility (Stone Ridge, NY).

In the case of `CC[C@H](C)[C@H](NC(=O)[C@H](Cc1c[nH]cn1)NC(=O)[C@H](CCCNC(=N)N)NC(=O)[C@H](CCCNC(=N)N)NC(=O)[C@H](CCCNC(=N)N)NC(=O)[C@H](CCSC)NC(=O)[C@H](Cc1ccccc1)NC(=O)[C@H](C)NC(=O)[C@H](CCCNC(=N)N)NC(=O)[C@H](C)NC(=O)[C@H](CCC(N)=O)NC(=O)[C@H](CCCNC(=N)N)NC(=O)[C@H](C)NC(=O)[C@H](C)NC(=O)[C@H](C)NC(=O)[C@H](CCCNC(=N)N)NC(=O)[C@H](C)NC(=O)[C@@H](N)Cc1ccc(O)cc1)C(=O)N[C@H](C(=O)N[C@@H](CCCNC(=N)N)C(=O)N[C@@H](CCCCN)C(=O)N[C@@H](CCCNC(=N)N)C(=O)N[C@]1(C)CCCCCCC=CCCC[C@@](C)(C(=O)N[C@@H](CCCNC(=N)N)C(=O)N[C@@H](CCC(=O)O)C(N)=O)NC(=O)[C@H](CCC(N)=O)NC(=O)[C@H](CC(C)C)NC(=O)[C@H](CC(C)C)NC(=O)[C@H](CCCNC(=N)N)NC(=O)[C@H](CCCNC(=N)N)NC(=O)[C@H](CC(C)C)NC1=O)C(C)C` [SAH5-EJ1] (H-YARAAARQARAFMRRRHIVRKR[R8]LRRLLQ[S5]RE-NH2; staple 23-30), the cell viability (CHO cells) was 67%, the ALP ([1]; female, 5 mg/kg, N = 5) was 88 ± 33.2 IU/L and the ALT ([1]; female, 5 mg/kg, N = 5) was 79 ± 35.0 IU/L. For the same molecule, the AST ([1]; female, 5 mg/kg, N = 5) was 80 ± 8.3^a IU/L, the BUN ([1]; female, 5 mg/kg, N = 5) was 19 ± 2.2 mg/dL and the TBIL ([1]; female, 5 mg/kg, N = 5) was 0.2 ± 0.05 mg/dL. The ALP ([1]; female, 10 mg/kg, N = 5) was 70 ± 48.4 IU/L, the ALT ([1]; female, 10 mg/kg, N = 5) was 61 ± 18.5 IU/L and the AST ([1]; female, 10 mg/kg, N = 5) was 83 ± 19.0 IU/L. For the same molecule, the BUN ([1]; female, 10 mg/kg, N = 5) was 19 ± 3.0 mg/dL, the TBIL ([1]; female, 10 mg/kg, N = 5) was 0.1 ± 0.05 mg/dL and the ALP ([1]; female, 15 mg/kg, N = 4) was 62 ± 18.4 IU/L. For the same molecule, the ALT ([1]; female, 15 mg/kg, N = 4) was 90 ± 27.2 IU/L, the AST ([1]; female, 15 mg/kg, N = 4) was 93 ± 12.5 IU/L and the BUN ([1]; female, 15 mg/kg, N = 4) was 22 ± 2.5 mg/dL. For the same molecule, the TBIL ([1]; female, 15 mg/kg, N = 4) was 0.1 ± 0^b mg/dL, the ALP ([1]; male, 5 mg/kg, N = 4) was 68 ± 13.8 IU/L and the ALT ([1]; male, 5 mg/kg, N = 4) was 124 ± 71.5 IU/L. For the same molecule, the AST ([1]; male, 5 mg/kg, N = 4) was 92 ± 28.6 IU/L, the BUN ([1]; male, 5 mg/kg, N = 4) was 26 ± 2.2 mg/dL and the TBIL ([1]; male, 5 mg/kg, N = 4) was 0.2 ± 0.05 mg/dL. The ALP ([1]; male, 10 mg/kg, N = 5) was 73 ± 19.7 IU/L, the ALT ([1]; male, 10 mg/kg, N = 5) was 96 ± 28.3 IU/L and the AST ([1]; male, 10 mg/kg, N = 5) was 83 ± 23.6 IU/L. The BUN ([1]; male, 10 mg/kg, N = 5) was 31 ± 7.3 mg/dL, the TBIL ([1]; male, 10 mg/kg, N = 5) was 0.2 ± 0.04 mg/dL and the ALP ([1]; male, 15 mg/kg, N = 4) was 58 ± 10.5 IU/L. For the same molecule, the ALT ([1]; male, 15 mg/kg, N = 4) was 67 ± 32.3 IU/L, the AST ([1]; male, 15 mg/kg, N = 4) was 63 ± 13.5 IU/L and the BUN ([1]; male, 15 mg/kg, N = 4) was 23 ± 2.9 mg/dL. It also gave a TBIL ([1]; male, 15 mg/kg, N = 4) of 0.2 ± 0.05 mg/dL.
